Structures are written as SMILES.

One test addresses T1, human NHE3 (Homo sapiens, UniProt P48764).
T1 sequence (P48764 26-834): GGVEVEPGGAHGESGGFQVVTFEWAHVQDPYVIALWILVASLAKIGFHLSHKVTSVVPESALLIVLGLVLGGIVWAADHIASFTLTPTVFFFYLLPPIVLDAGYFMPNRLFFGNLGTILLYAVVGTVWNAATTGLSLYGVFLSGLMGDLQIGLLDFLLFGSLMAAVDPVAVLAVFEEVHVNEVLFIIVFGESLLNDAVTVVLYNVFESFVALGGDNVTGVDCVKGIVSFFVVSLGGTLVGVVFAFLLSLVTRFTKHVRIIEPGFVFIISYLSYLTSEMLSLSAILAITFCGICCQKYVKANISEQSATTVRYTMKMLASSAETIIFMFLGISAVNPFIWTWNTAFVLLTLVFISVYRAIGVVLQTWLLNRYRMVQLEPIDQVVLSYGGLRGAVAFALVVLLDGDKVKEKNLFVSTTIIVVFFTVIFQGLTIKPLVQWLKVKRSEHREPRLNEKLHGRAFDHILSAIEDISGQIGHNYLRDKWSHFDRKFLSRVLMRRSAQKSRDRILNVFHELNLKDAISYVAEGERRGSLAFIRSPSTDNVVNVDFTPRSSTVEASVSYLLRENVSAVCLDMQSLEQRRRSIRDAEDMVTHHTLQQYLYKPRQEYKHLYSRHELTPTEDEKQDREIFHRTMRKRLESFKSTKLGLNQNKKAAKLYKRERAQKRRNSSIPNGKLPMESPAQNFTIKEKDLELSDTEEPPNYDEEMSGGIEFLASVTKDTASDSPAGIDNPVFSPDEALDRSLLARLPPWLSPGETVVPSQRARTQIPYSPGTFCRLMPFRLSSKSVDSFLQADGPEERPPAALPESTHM
Nature of the test: Cell-based assay of NHE-3 activity (human NHE3 inhibition assay). Also noted: expressed in transfected cells; host or cells: Opossum kidney (OK) cells (ATCC), electroporated. To be noted: OK cells with human NHE-3 gene, BCECF pH recovery, 0-30 μM test compound; for IC50: read-out: Human NHE3 pIC50 (converted). The protocol:
Rat or human NHE-3-mediated Na^+-dependent H^+ antiport was measured using a modification of the pH sensitive dye method originally reported by Paradiso (Proc. Natl. Acad. Sci. USA. (1984) 81(23): 7436-7440). Opossum kidney (OK) cells were obtained from the ATCC and propagated per their instructions. The rat NHE-3 gene (GenBank M85300) or the human NHE-3 gene (GenBank NM_004174.1) was introduced into OK cells via electroporation, and cells were seeded into 96 well plates and grown overnight. Medium was aspirated from the wells, cells were washed twice with NaCl-HEPES buffer (100 mM NaCl, 50 mM HEPES, 10 mM glucose, 5 mM KCl, 2 mM CaCl2, 1 mM MgCl2, pH 7.4), then incubated for 30 min at room temperature with NH4Cl-HEPES buffer (20 mM NH4Cl, 80 mM NaCl, 50 mM HEPES, 5 mM KCl, 2 mM CaCl2, 1 mM MgCl2, pH 7.4) containing 5 μM bis(acetoxymethyl) 3,3′-(3′,6′-bis(acetoxymethoxy)-5-((acetoxymethoxy)carbonyl)-3-oxo-3H-spiro[isobenzofuran-1,9′-xanthene]-2′,7′-diyl)dipropanoate (BCECF-AM). Cells were washed twice with Ammonium free, Na^+-free HEPES (100 mM choline, 50 mM HEPES, 10 mM glucose, 5 mM KCl, 2 mM CaCl2, 1 mM MgCl2, pH 7.4) and incubated in the same buffer for 10 minutes at room temperature to lower intracellular pH. […] Initial rates were plotted as the average 2 or more replicates, and pIC50 values were estimated using GraphPad Prism.

Test [1] has as its system absorption of sodium from the intestinal lumen. The test can be described thus: Inhibition of intestinal sodium absorption: rat urinary sodium and fecal form 16 h post-dose. The class given is in vivo, Sprague-Dawley rats. Conditions: for FFS (fecal form score): 16 h post-dose, scale 1-5, group average. The protocol: Urinary sodium concentration and fecal form were measured to assess the ability of selected example compounds to inhibit the absorption of sodium from the intestinal lumen. Eight-week old Sprague-Dawley rats were purchased from Charles River Laboratories (Hollister, Calif.), were housed 2 per cage, and acclimated for at least 3 days before study initiation. Animals were fed Harlan Teklad Global 2018 rodent chow (Indianapolis, Ind.) and water ad libitum throughout the study and maintained in a standard light/dark cycle of 6 AM to 6 PM. On the day of the study, between 4 PM and 5 PM, a group of rats (n=6) were dosed via oral gavage with test compound or vehicle (water) at a volume of 10 mL/kg. After dose administration animals were placed in individual metabolic cages where they were also fed the same chow in meal form and watered ad libitum. At 16 h post-dose, the urine samples were collected and fecal form was assessed by two independent observations. Fecal forms were scored according to a common scale associated with increasing fecal water to the wettest observation in the cage's collection funnel (1, normal pellet; 2, pellet adhering to sides of collection funnel due to moisture; 3, loss of normal pellet shape; 4, complete loss of shape with a blotting pattern; 5, liquid fecal streams evident). A rat's fecal form score (FFS) was determined by averaging both observational scores for all rats within a group (n=6). The vehicle group average was 1. For urine samples, the volumes were determined gravimetrically and centrifuged at 3,600×g. The supernatants were diluted 100-fold in deionized Milli-Q water then filtered through a 0.2 μm GHP Pall AcroPrep filter plate (Pall Life Sciences, Ann Arbor, Mich.) prior to analysis by ion chromatography. Ten microliters of each filtered extract was injected onto a Dionex ICS-3000 ion chromatograph system (Dionex, Sunnyvale, Calif.). Cations were separated by an isocratic method using 25 mM methanesulfonic acid as the eluent on an IonPac CS12A 2 mm i.d.×250 mm, 8 μm particle size cation exchange column (Dionex). Sodium was quantified using standards prepared from a cation standard mix containing Li^+, Na^+, NH4^+, K^+, Mg^2+, and Ca^2+ (Dionex). The mean mass of sodium urinated for every group in the 16 h period was determined with the vehicle group usually urinating approximately 21 mg sodium. The urine Na (uNa) for rats in the test groups were expressed as a percentage of the vehicle mean and the means were compared to that of the vehicle group by utilizing a one-way analysis of variance coupled with a Dunnett's post hoc test.

Where [2] appears, read: oral gavage 10 mg/kg, urine 16 h post-dose, read-out: uNa Result, uNa (% of vehicle).

Take `N[C@@H]1CCCN([C@H]2Cc3ccccc3[C@@H]2Oc2ccc(S(=O)(=O)NCCOCCOCCNC(=O)NCCCCNC(=O)NCCOCCOCCNS(=O)(=O)c3ccc(O[C@H]4c5ccccc5C[C@@H]4N4CCC[C@@H](N)C4)cc3)cc2)C1` [Example 28]: the IC50 on human NHE3 was 0.1 to 10 µM. Regarding `O=C(NCCOCCOCCOCCNS(=O)(=O)c1ccc(O[C@H]2c3ccccc3C[C@@H]2N2CCCCC2)cc1)c1ccc(C(=O)NCCOCCOCCOCCNS(=O)(=O)c2ccc(O[C@H]3c4ccccc4C[C@@H]3N3CCCCC3)cc2)cc1` [Example 34], the response vs control in vivo at 10 mg/kg in test [1] (setting [2]) was over 75%. For the same compound, the IC50 on human NHE3 was under 0.1 µM. For `NC(CCC(=O)NCCOCCOCCOCCNS(=O)(=O)c1ccc(O[C@H]2c3ccccc3C[C@@H]2N2CCCCC2)cc1)(CCC(=O)NCCOCCOCCOCCNS(=O)(=O)c1ccc(O[C@H]2c3ccccc3C[C@@H]2N2CCCCC2)cc1)CCC(=O)NCCOCCOCCOCCNS(=O)(=O)c1ccc(O[C@H]2c3ccccc3C[C@@H]2N2CCCCC2)cc1` [Example 10, 4-amino-4-(13-oxo-1-(4-((1S,2S)-2-(piperidin-1-yl)-2,3-dihydro-1H-inden-1-yloxy)phenylsulfonamido)-3,6,9-trioxa-12-azapentadecan-15-yl)-N1,N7-bis(2-(2-(2-(2-(4-((1S,2S)-2-(piperidin-1-yl)-2,3-dihydro-1H-inden-1-yloxy)phenylsulfonamido)ethoxy)ethoxy)ethoxy)ethyl)heptanediamide], on human NHE3, the IC50 is under 0.1 µM.

`CN(C)[C@H]1Cc2c(Cl)cc(Cl)cc2[C@@H]1Oc1ccc(S(=O)(=O)NCCOCCOCCNC(=O)Nc2ccc(NC(=O)NCCOCCOCCNS(=O)(=O)c3ccc(O[C@H]4c5cc(Cl)cc(Cl)c5C[C@@H]4N(C)C)cc3)cc2)cc1` [Example 2, (S,S)—N,N′-(2,2′-(2,2′-(2,2′-(1,4-phenylenebis(azanediyl))bis(oxomethylene)bis(azanediyl)bis(ethane-2,1-diyl))bis(oxy)bis(ethane-2,1-diyl))bis(oxy)bis(ethane-2,1-diyl))bis(4-((1S,2S)-4,6-dichloro-2-(dimethylamino)-2,3-dihydro-1H-inden-1-yloxy)benzenesulfonamide)]: the “Human NHE3 pIC50” value at human NHE3 is given as “C (NHE3 pIC50 >7)”. `O=C(NCCCCNC(=O)NCCOCCOCCNC(=O)Nc1ccc(O[C@H]2c3ccccc3C[C@@H]2N2CCCCC2)cc1)NCCOCCOCCNC(=O)Nc1ccc(O[C@H]2c3ccccc3C[C@@H]2N2CCCCC2)cc1` [Example 38]: the “FFS (fecal form score)” value in test [1] (oral gavage 3 mg/kg) was 1. For the same compound, the response vs control in vivo at 3 mg/kg in test [1] (oral gavage 3 mg/kg, urine 16 h post-dose, read-out: uNa Result, uNa (% of vehicle)) was over 75%. Besides, at human NHE3, the IC50 was under 0.1 µM. For the compound `O=C(NCCCCNC(=O)NCCOCCOCCNS(=O)(=O)c1ccc(O[C@H]2c3cc(Cl)ccc3C[C@@H]2N2CCCCC2)cc1)NCCOCCOCCNS(=O)(=O)c1ccc(O[C@H]2c3cc(Cl)ccc3C[C@@H]2N2CCCCC2)cc1` [Example 18], at human NHE3, the IC50 is under 0.1 µM. As to `O=C(NCCOCCOCCOCCNS(=O)(=O)c1ccc(O[C@H]2c3ccccc3C[C@@H]2N2CCCCC2)cc1)c1cccc(C(=O)NCCOCCOCCOCCNS(=O)(=O)c2ccc(O[C@H]3c4ccccc4C[C@@H]3N3CCCCC3)cc2)c1` [Example 35], the response vs control in vivo at 10 mg/kg in test [1] (setting [2]) is over 75%. The IC50 on human NHE3 was under 0.1 µM. `O=C(NCCOCCOCCNS(=O)(=O)c1ccc(O[C@H]2c3ccccc3C[C@@H]2N2CCCCC2)cc1)c1ccc(C(=O)NCCOCCOCCNS(=O)(=O)c2ccc(O[C@H]3c4ccccc4C[C@@H]3N3CCCCC3)cc2)cc1` [Example 6, N1,N4-bis(2-(2-(2-(4-((1S,2S)-2-(piperidin-1-yl)-2,3-dihydro-1H-inden-1-yloxy)phenylsulfonamido)ethoxy)ethoxy)ethyl)terephthalamide]: in test [1] (oral gavage 10 mg/kg), the “FFS (fecal form score)” value is reported as 1. In addition, in test [1] (setting [2]), the response vs control in vivo at 10 mg/kg lay in the range of 35 to 75%. In addition, on human NHE3, the IC50 is under 0.1 µM. For `CN(C)[C@H]1Cc2c(Cl)cc(Cl)cc2[C@@H]1Oc1ccc(S(=O)(=O)N(C)CCOCCOCCNC(=O)NCCCCNC(=O)NCCOCCOCCN(C)S(=O)(=O)c2ccc(O[C@H]3c4cc(Cl)cc(Cl)c4C[C@@H]3N(C)C)cc2)cc1` [Example 26] the same measures were 1, 35 to 75% and under 0.1 µM. Take `O=C(NCCOCCOCCNS(=O)(=O)c1ccc(O[C@H]2c3ccccc3C[C@@H]2N2CCCCC2)cc1)c1cccc(C(=O)NCCOCCOCCNS(=O)(=O)c2ccc(O[C@H]3c4ccccc4C[C@@H]3N3CCCCC3)cc2)c1` [Example 33]: in test [1] (setting [2]), the response vs control in vivo at 10 mg/kg lay in the range of 35 to 75%. In addition, at human NHE3, the IC50 was under 0.1 µM. The matching figures for `O=C(NCCOCCOCCNS(=O)(=O)c1ccc(O[C@H]2c3ccccc3C[C@@H]2N2CCCCC2)cc1)[C@H](O)[C@@H](O)C(=O)NCCOCCOCCNS(=O)(=O)c1ccc(O[C@H]2c3ccccc3C[C@@H]2N2CCCCC2)cc1` [Example 32]: over 75% and under 0.1 µM. `CC(C)(C(=O)NCCOCCOCCOCCNS(=O)(=O)c1ccc(O[C@H]2c3ccccc3C[C@@H]2N2CCCCC2)cc1)C(=O)NCCOCCOCCOCCNS(=O)(=O)c1ccc(O[C@H]2c3ccccc3C[C@@H]2N2CCCCC2)cc1` [Example 7, 2,2-dimethyl-N1,N3-bis(2-(2-(2-(2-(4-((1S,2S)-2-(piperidin-1-yl)-2,3-dihydro-1H-inden-1-yloxy)phenylsulfonamido)ethoxy)ethoxy)ethoxy)ethyl)malonamide]: the response vs control in vivo at 10 mg/kg in test [1] (setting [2]) lay in the range of 35 to 75%. Further, on human NHE3, the IC50 is under 0.1 µM. For `O=C(NCCCCNC(=O)NCCOCCOCCNS(=O)(=O)c1ccc(O[C@H]2c3ccccc3C[C@@H]2N2CCCC2)cc1)NCCOCCOCCNS(=O)(=O)c1ccc(O[C@H]2c3ccccc3C[C@@H]2N2CCCC2)cc1` [Example 19] the same measures were 35 to 75% and over 10 µM. In the case of `O=C(NCCCCNC(=O)NCCOCCOCCNS(=O)(=O)c1ccc(O[C@H]2c3ccccc3C[C@@H]2N2CC[C@@H](O)C2)cc1)NCCOCCOCCNS(=O)(=O)c1ccc(O[C@H]2c3ccccc3C[C@@H]2N2CC[C@@H](O)C2)cc1` [Example 31], the IC50 on human NHE3 is under 0.1 µM.

These data come from patent US10376481B2, “Compounds and methods for inhibiting NHE-mediated antiport in the treatment of disorders associated with fluid retention or salt overload and gastrointestinal tract disorders” (ARDELYX, INC, priority 2012, dated 2019).
